Like-named read-outs stand apart in the source and are kept apart here. Where a SMILES comes first, the peptide text is derived from it. Bridges are numbered along the chain shown (N, C = ends). Bounds are passed on as bounds.

The target of one data set is T1, bovine trypsin (Bos taurus, UniProt P00760).
T1 sequence (P00760 24-246): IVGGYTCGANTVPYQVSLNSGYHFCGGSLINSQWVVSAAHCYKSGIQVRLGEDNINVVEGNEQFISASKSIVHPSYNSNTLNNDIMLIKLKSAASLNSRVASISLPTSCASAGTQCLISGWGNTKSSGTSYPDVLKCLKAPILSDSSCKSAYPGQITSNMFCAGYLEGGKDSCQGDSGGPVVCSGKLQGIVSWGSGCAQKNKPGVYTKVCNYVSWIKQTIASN
The data set is described as follows: Trypsin inhibition assay (kinetic, substrate Phe-Pro-Arg-AMC). In kind it is biochemical. The protocol: The kinetic enzyme assay was performed as described in the previous study. Substrate Phe-Pro-Arg-AMC was employed for investigating the hydrolysis of bovine trypsin. Trypsin working solution (10 µL trypsin stock solution (0.1 µM) + 9.99 mL HCl (1 mM)) and trypsin substrate working solution (50 µL substrate stock solution (Phe-Pro-Arg-AMC) (10 mM) + 9.95 mL PBS) were prepared prior to use. Trypsin inhibition assay contained three groups, namely positive control (20 µL PBS, 180 µL substrate working solution, 10 µL trypsin working solution), blank control (20 µL PBS + 10 µL HCl (1 mM) + 180 µL substrate working solution) and peptide group (20 µL peptide solution with the concentration ranging from 10 to 1000 µM, 180 µL substrate working solution, 10 µL trypsin working solution). The fluorescent strength released from hydrolysis of the substrate was monitored at 37 °C at the wavelength of 460 nm (excitation at 360 nm) in a POLARstar Omega Microplate Reader (B.M.G. Labtech, Offenburg, German). Each concentration of the sample was carried out in triplicate and repeated at least three times.
Peptide concentration ( μM)
Figure S3. The progress curve of inhibition rate in the presence of different concentrations of pep-tides (a) Kunitzin-AH; (b) AH-1363; (c) AH-unoxidized; (d) AH-1447; (e) AH-798; (f) AH-880-I; (g) […]
The Y-axis represented the rate of the fluorescence decay, while the X-axis represented peptide concentrations in µM. The Ki values were calculated by Morrison formula in Prism 6, in […]
Error bars represent standard error of mean
(SEM) of three replicates. […]

Another data set relates to horse erythrocytes. Briefly: Hemolytic activity assay. To be noted: for Hemolysis: 2% horse erythrocytes suspension, 37 °C, two hours. In kind it is cell-based. The protocol: Hemolysis assay was conducted through the incubation of peptides and 2% horse erythrocytes suspension (T.C.S. Biosciences Ltd. Buckingham, UK) at 37 °C for two hours as detailed in the previous study. Afterwards, the positive control (considered as 100% hemolysis of cells) was conducted with 1% Triton X-100 (Sigma, Dorset, UK), while the negative control (0%) was treated with phosphate-buffered saline (PBS). The absorbance values were subsequently measured with a Synergy H.T. plate reader (BioTech, Minneapolis, MN, USA) and calculated by using Gen 5 software at a wavelength of 550 nm.

Where [1] appears, read: Morrison formula, three independent experiments, 37 °C, read-out: Ki Value.

Consider `C[C@@H]1NC(=O)[C@H](C)NC(=O)[C@H](CCCCN)NC(=O)[C@@H](NC(=O)[C@@H](N)CCCNC(=N)N)CSSC[C@@H](C(=O)O)NC(=O)[C@H](Cc2ccccc2)NC1=O` [AH-798, RCKAAFC] (H-RCKAAFC-OH; disulfide 2-7), for which, at bovine trypsin (setting [1]), the Ki (in general, a measure of affinity in units of concentration, obtained from inhibition or displacement) was 1.76 ± 0.13 µM. Moreover, the Hemolysis in the data set with horse erythrocytes is listed as >512 µM.
For `CC[C@H](C)[C@@H]1NC(=O)[C@H](CCCCN)NC(=O)[C@@H](NC(=O)[C@@H](N)CCCNC(=N)N)CSSC[C@@H](C(=O)O)NC(=O)[C@H](Cc2ccccc2)NC(=O)[C@H]([C@@H](C)CC)NC1=O` [AH-880-I, RCKIIFC] (H-RCKIIFC-OH; disulfide 2-7) the same measures were 16.1 ± 1.2 µM and >512 µM.
For the molecule `N=C(N)NCCC[C@H](N)C(=O)N[C@H]1CSSC[C@@H](C(=O)O)NC(=O)[C@H](Cc2ccccc2)NC(=O)[C@H](CC(N)=O)NC(=O)[C@H](CC(N)=O)NC(=O)[C@H](CCCCN)NC1=O` [AH-884, RCKNNFC] (H-RCKNNFC-OH; disulfide 2-7), on bovine trypsin (setting [1]), the Ki came out at 133 ± 4.1 µM. In the data set on horse erythrocytes, the Hemolysis was >512 µM.
Regarding `CC(C)[C@H](NC(=O)[C@H](C)N)C(=O)N[C@@H](CCCNC(=N)N)C(=O)N1CCC[C@H]1C(=O)N1CCC[C@H]1C(=O)N[C@@H](Cc1ccccc1)C(=O)N[C@@H](CCCNC(=N)N)C(=O)N[C@@H](CS)C(=O)N[C@@H](CCCCN)C(=O)N[C@@H](C)C(=O)N[C@@H](C)C(=O)N[C@@H](Cc1ccccc1)C(=O)O` [AH-1363, AVRPPFRCKAAF] (H-AVRPPFRCKAAF-OH; N-terminus and C-terminus assumed), the Ki on bovine trypsin came to 96.9 ± 1.2 µM. Also, the Hemolysis with horse erythrocytes is >512 µM.
Taken in the same sequence, the figures for `CC(C)[C@H](NC(=O)[C@H](C)N)C(=O)N[C@@H](CCCNC(=N)N)C(=O)N1CCC[C@H]1C(=O)N1CCC[C@H]1C(=O)N[C@@H](Cc1ccccc1)C(=O)N[C@@H](CCCNC(=N)N)C(=O)N[C@H]1CSSC[C@@H](C(=O)O)NC(=O)[C@H](CCCCN)NC(=O)[C@H](C)NC(=O)[C@H](C)NC(=O)[C@H](CCCCN)NC1=O` [AH-1447, AVRPPFRCKAAKC] (H-AVRPPFRCKAAKC-OH; disulfide 8-13) were 349.2 ± 0.93 µM and >512 µM.
For `CC(C)[C@H](NC(=O)[C@H](C)N)C(=O)N[C@@H](CCCNC(=N)N)C(=O)N1CCC[C@H]1C(=O)N1CCC[C@H]1C(=O)N[C@@H](Cc1ccccc1)C(=O)N[C@@H](CCCNC(=N)N)C(=O)N[C@@H](CS)C(=O)N[C@@H](CCCCN)C(=O)N[C@@H](C)C(=O)N[C@@H](C)C(=O)N[C@@H](Cc1ccccc1)C(=O)N[C@@H](CS)C(=O)O` [AH-unoxidized, AVRPPFRCKAAFC] (H-AVRPPFRCKAAFC-OH), affinity at bovine trypsin was put at a Ki of 59.9 ± 2.82 µM. The Hemolysis in the data set on horse erythrocytes is recorded as >512 µM.
Regarding `CC(C)[C@H](NC(=O)[C@H](C)N)C(=O)N[C@@H](CCCNC(=N)N)C(=O)N1CCC[C@H]1C(=O)N1CCC[C@H]1C(=O)N[C@@H](Cc1ccccc1)C(=O)N[C@@H](CCCNC(=N)N)C(=O)N[C@H]1CSSC[C@@H](C(=O)O)NC(=O)[C@H](Cc2ccccc2)NC(=O)[C@H](C)NC(=O)[C@H](C)NC(=O)[C@H](CCCCN)NC1=O` [Kunitzin-AH, AVRPPFRCKAAFC] (H-AVRPPFRCKAAFC-OH; disulfide 8-13), on bovine trypsin, the Ki came out at 1.18 ± 0.08 µM. The Hemolysis in the data set with horse erythrocytes is >512 µM. The “hemolytic activity (in words)” value in the data set on horse erythrocytes (normal horse erythrocytes) is given as “without inducing damage to healthy horse erythrocytes”.

The values above are taken from paper PMC8309051, “Structure–Activity Relationship and Molecular Docking of a Kunitz-Like Trypsin Inhibitor, Kunitzin-AH, from the Skin Secretion of Amolops hainanensis” (Pharmaceutics, 2021).
